Source: article PMC7190706, “A Self-Assembling Lipidic Peptide and Selective Partial V2 Receptor Agonist Inhibits Urine Production” (Scientific Reports, 2020)

Experiments:
V2 receptor = molecular target: T1, V2 receptor (Canis lupus familiaris, UniProt O77808); experiment: V2 receptor agonism, cAMP accumulation in MDCK cells (cAMP EIA); assay type: cell-based, dog
T1 construct: MDCK cells expressing the V2 receptor were cultured; endogenous in cells; host or cells: MDCK cells
Protocol: We thus used the V2 receptor from MDCK cells, V1a receptors from A7r5 cells and OT receptors from rat uterine strips for our receptor activity assays.
MDCK cells expressing the V2 receptor were cultured in Eagle’s Essential Minimum Medium (EMEM) supplemented with foetal bovine serum (FBS, 10% v/v), L-Glutamine (1% v/v) and non-essential amino acids (NEAA 1% v/v). […] The cell culture medium was changed every 2 days. Cells were sub-cultured every 7 days or upon reaching confluence using trypsin/ ethylene diamine tetraacetic acid (EDTA) (0.25%w/v trypsin/ 0.01%w/v EDTA in phosphate buffered saline, 3 mL) solution to dissociate the cells and the cells reseeded at one third of their original density.
The cell culture media was changed daily. On the day of the experiment, the cells were washed with Dulbecco’s phosphate-buffered saline (DPBS) without calcium and magnesium and incubated for 1 hour in cell culture medium with isobutyl methylxanthine (IBMX, 0.5 mM). IBMX is a phosphodiesterase inhibitor that prevents the breakdown of cAMP within the cells; allowing for total quantification of the analyte cAMP. […]
for total quantification of the analyte cAMP. […]
was quantified from the cell lysate (0.1 mL) using a competition based EIA as per the […]
acid (0.1 M, 0.1 mL) and the plates read at 450 nm using an ELx808 microplate reader […]
concentration of cAMP per well was determined from equation 1. […]

MDCK cell line = conditions: read-out: EC50 functional activity (fluid secretion); cited from earlier work
OT receptor = molecular target: T2, OT receptor (Rattus norvegicus, UniProt P70536); experiment: OT induced contractions of isolated uterine strips (organ bath); conditions: for 1/Rmax of double reciprocal plot (1/R vs 1/[OT]): Rmax = maximum contractile response in cm
T2 construct: OT receptors from rat uterine strips for our receptor activity assays; from tissue; host or cells: uterine strips of female Wistar rats
T2 sequence (P70536 1-388): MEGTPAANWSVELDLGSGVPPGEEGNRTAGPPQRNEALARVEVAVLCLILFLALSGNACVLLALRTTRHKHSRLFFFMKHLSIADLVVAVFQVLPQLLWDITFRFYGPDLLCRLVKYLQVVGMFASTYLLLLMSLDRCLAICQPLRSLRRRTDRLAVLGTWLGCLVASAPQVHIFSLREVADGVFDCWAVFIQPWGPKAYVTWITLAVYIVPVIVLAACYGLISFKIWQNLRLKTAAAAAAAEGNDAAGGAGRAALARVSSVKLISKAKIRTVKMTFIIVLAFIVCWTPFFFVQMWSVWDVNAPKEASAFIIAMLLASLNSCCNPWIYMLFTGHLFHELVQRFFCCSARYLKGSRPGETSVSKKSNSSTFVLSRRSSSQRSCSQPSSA
Text: The uterus was excised and dissected into longitudinal strips (0.5 ×1.3–1.4 cm) from the anti-mesometrial side of the mid-portion of horns which contained implantation sites.
Only one strip from each animal was used. The uterine strip was tied at the bottom end to a fixed metal hook and at the top end to a force displacement transducer (Harvard Instruments, Kent, UK) using a cotton thread. The force displacement transducer was coupled to an amplifier driving a direct writing oscillograph (Universal Oscillograph, Harvard, Kent, UK). A cumulative dose procedure was used and isotonic contractions recorded.
DMF was added as DMF had been used to solubilise METx. […] The mean peak amplitude (MPA) was calculated from Eq. 1.1 MPA=ΣPH/n where PH = peak heights obtained within the 10 minute period immediately after addition of METx, OT or dimethylformamide and n = number of peaks within the same 10 minute period. The frequency of isotonic contractions was also evaluated during the 10 minute period immediately after the addition of METx, OT or dimethylformamide.
The organ bath was not washed out until a maximal response was reached. The MPA was calculated as shown in Equation 1, except that the recordings were done after the addition of each dose of OT and the MPA was calculated over a 5 minute period. To quantify the effect of METx on OT induced contractions, METx (final bath concentration = 0.1, 0.3 or 0.6 µM) was added to the organ bath prior to the addition of OT (Table 2 – Supplementary Information). […] Results were plotted as a percentage of the maximum contraction obtained with KCl against concentration. A double reciprocal plot was used to assess the nature of the receptor antagonism observed.
(1 picture or pasted object on this page, not shown here)

[1] = tested on: spontaneous uterine contractions; experiment: Spontaneous contractions of isolated uterine strips (organ bath); parameters: species or system rat; conditions: METx 41 nM
Protocol: Female Wistar rats (203–225 g) were killed with CO2 on the day of the experiments. The uterus was excised and dissected into longitudinal strips (0.5 ×1.3–1.4 cm) from the anti-mesometrial side of the mid-portion of horns which contained implantation sites.
The uterine strips were suspended in an organ bath that contained physiological salt solution (PSS, 25 ml: 116 mM NaCl, 4.6 mM KCl, 1.16 mM NaH2PO4.H2O, 1.16 mM MgSO4.7H2O, 21.9 mM NaHCO3, 1.8 mM CaCl2.2H2O, 11.6 mM dextrose, 0.03 mM CaNa2EDTA, pH = […]). The water-jacketed bath was maintained at 36 °C and aerated with a mixture of 95% O2 and 5% CO2. Only one strip from each animal was used. The uterine strip was tied at the bottom end to a fixed metal hook and at the top end to a force displacement transducer (Harvard Instruments, Kent, UK) using a cotton thread. The force displacement transducer was coupled to an amplifier driving a direct writing oscillograph (Universal Oscillograph, Harvard, Kent, UK). A cumulative dose procedure was used and isotonic contractions recorded.
To quantify the effect of METx on spontaneous uterine contractions the myometrial strips from the same uterus as above, but from the opposite horn, were equilibrated for 60 min within the organ bath and then a single dose of DMF applied followed by doses of METx as shown in Table 1 in the Supplementary Information. […]

[2] = Plasma stability in 30% rat plasma, HPLC; assay type: in vitro ADME; conditions: 37 °C
Protocol: The plasma stability of METx was evaluated prior to an in vivo study. Blood was collected from male Sprague Dawley rats (n = 3, 200–250 g) into a vacutainer coated with ethylene diamine tetra-acetic acid (EDTA) and kept on ice (4 °C) until the plasma could be separated by centrifugation (10 min at 2000g and 4 °C, Hermle z323k centrifuge, HERMLE Labortechnik, Germany). The separated rat plasma was stored at −20 °C until required. On the day of the experiment, the plasma was thawed just prior to the experiment and diluted to 30% v/v using NaCl (0.9%). METx (7.2 × 10^−4M, 50 μL) was added to the diluted plasma (30% v/v, 450μL) that had been allowed to warm for 30 minutes at 37 °C either as a solution in dimethylsulfoxide or as a GCPQ nanoparticle formulation dispersed in water. The formulations and free drug were incubated at 37 °C with shaking for a maximum of 4 hours. At regular time intervals aliquots (50μL) were removed and mixed with dimethylformamide (150μL) to dissolve the METx and precipitate the plasma proteins. Samples were then immediately vortexed and centrifuged for 10 minutes at 13,000 rpm (MSE micro centaur centrifuge, MSE, UK). The supernatant (100μL) was collected and 40 μL was analysed using a reverse phase high performance liquid chromatography (HPLC) method. HPLC analyses was performed using an Agilent 1200 HPLC system (Agilent Technologies, UK) equipped with a quaternary pump, degasser, autosampler and a UV detector. Samples were chromatographed over a reverse phase column: Phenomenex Onyx Monolithic C18 column (5μm, 4.6 ×100 mm, Phenomenex, UK) connected in series with a guard column (5μm, 4.6 ×10 mm). The column temperature was kept constant at 35 °C. Separation was performed using an acetonitrile, water mobile phase gradient method (Table 3 – Supplementary Information) at a flow rate of 1.5 mL per minute, with detection at a wavelength of 280 nm.

[3] = Spontaneously voided urine volume and osmolality after intravenous injection in healthy rats; assay type: in vivo; conditions: METx (5: 1) nanoparticle formulation, rat
Protocol: Male Sprague Dawley rats (220–250 g) were housed five per cage in an air conditioned unit maintained at 20–22 °C and 50–60% humidity, with lighting controlled on a twelve-hour cycle. The lights were switched on at 07:00 and off at 19:00. Animals were allowed free access to standard rodent chow and water. Before experimentation, animals were habituated for 7 days within the unit. Prior to testing animals were acclimatised to the procedure room for 1 hour. Animals were also acclimatised to the metabolic cages for 20 minutes per day for 5 days before the day of experiment. Animals were randomly assigned into one of four groups; untreated, and animals receiving an intravenous injection of 10, 20 or 40 mg kg^−1 of METx as a GCPQ, METx (5: 1) nanoparticle formulation (n = 3) in a dose volume of 0.9 mL. The formulations were freshly prepared on the morning of the experiment as described above and the pH of the formulation adjusted to pH = 7 using sodium hydroxide (1 M). After receiving their METx formulations, animals were placed within individual metabolic cages (Techniplast, Italy) with access to water. Spontaneously voided urine was collected for 4 hours. Urine osmolality was determined by freezing point depression using a Type 5r osmometer (Loser, Germany).

V1a receptor = molecular target: T3, V1a receptor (Rattus norvegicus, UniProt P30560); experiment: V1a receptor agonism, IP-1 ELISA in A7r5 cells; assay type: cell-based
T3 construct: V1a receptors from A7r5 cells; endogenous in cells; host or cells: A7r5 rat smooth muscle cells
Text: microplate reader. […] The
hours. […] The cells were
manufacturer’s instructions.

human V1a receptor = tested on: human V1a receptor; parameters: method as in PMID 22375852; conditions: cited from earlier work

T1 sequence (O77808 whole entry): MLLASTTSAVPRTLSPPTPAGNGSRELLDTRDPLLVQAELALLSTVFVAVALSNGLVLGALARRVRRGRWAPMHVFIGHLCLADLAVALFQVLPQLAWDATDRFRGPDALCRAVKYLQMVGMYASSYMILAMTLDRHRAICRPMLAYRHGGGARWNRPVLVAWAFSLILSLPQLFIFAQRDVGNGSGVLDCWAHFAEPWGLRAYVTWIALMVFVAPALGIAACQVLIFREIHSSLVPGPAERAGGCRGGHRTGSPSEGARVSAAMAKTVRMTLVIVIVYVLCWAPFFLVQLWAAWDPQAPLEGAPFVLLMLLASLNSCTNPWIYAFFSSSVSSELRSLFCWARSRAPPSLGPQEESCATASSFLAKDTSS
T3 sequence (P30560 whole entry): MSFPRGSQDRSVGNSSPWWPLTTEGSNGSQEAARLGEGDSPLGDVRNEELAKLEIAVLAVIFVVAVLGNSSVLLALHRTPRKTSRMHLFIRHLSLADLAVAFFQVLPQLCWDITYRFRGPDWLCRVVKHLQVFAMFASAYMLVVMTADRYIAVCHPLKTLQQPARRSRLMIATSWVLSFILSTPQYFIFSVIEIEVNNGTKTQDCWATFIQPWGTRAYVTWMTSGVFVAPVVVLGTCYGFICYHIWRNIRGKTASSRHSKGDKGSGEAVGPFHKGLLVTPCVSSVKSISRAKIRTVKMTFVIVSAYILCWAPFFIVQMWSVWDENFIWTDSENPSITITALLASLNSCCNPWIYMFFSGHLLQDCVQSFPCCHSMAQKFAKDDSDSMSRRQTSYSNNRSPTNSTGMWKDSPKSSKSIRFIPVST

## N=C(N)NCCC[C@H](NC(=O)[C@@H]1CCCN1C(=O)[C@@H]1CSSC[C@H](N)C(=O)N[C@@H](Cc2ccc(O)cc2)C(=O)N[C@@H](Cc2ccccc2)C(=O)N[C@@H](CCC(N)=O)C(=O)N[C@@H](CC(N)=O)C(=O)N1)C(=O)NCC(N)=O [AVP, arginine vasopressin, reference compound]
V2 receptor
  concentration at which the maximal cAMP response was seen: 100 nM
MDCK cell line
  EC50: 0.36 nM

## CCCCCCCCCCCCCCCC(=O)NCCCC[C@H](NC(=O)CNC(=O)[C@H](CC(C)C)NC(=O)[C@@H]1CCCN1C(=O)[C@@H]1CSSC[C@H](N)C(=O)N[C@@H](Cc2ccc(O)cc2)C(=O)N[C@@H]([C@@H](C)CC)C(=O)N[C@@H](CCC(N)=O)C(=O)N[C@@H](CC(N)=O)C(=O)N1)C(=O)O [METx]
V2 receptor
  concentration at which the maximal cAMP response was seen: 10 nM
OT receptor; 300 nM versus V2 EC50
  OT antagonist concentration relative to EC50 at the V2 receptor: 100 fold
OT receptor; 100 nm of inhibitor
  effect on OT induced contractions: not effective in reducing OT induced contractions
OT receptor; METx 300 nM and 600 nM, amplitude of OT induced contractions, p < 0.05
  shift of the OT dose response curve to the right: two orders of magnitude
OT receptor; from double reciprocal plots
  nature of antagonism at the OT receptor: non-competitive antagonist
OT receptor; inhibitor 100 nM
  1/Rmax of double reciprocal plot (1/R vs 1/[OT]): 0.48
OT receptor; inhibitor 300 nM
  1/Rmax of double reciprocal plot (1/R vs 1/[OT]): 0.97
OT receptor; inhibitor 600 nM
  1/Rmax of double reciprocal plot (1/R vs 1/[OT]): 1.33
OT receptor; uterine strips
  concentration at which antagonism at the OT receptor starts: 300 nM
[1]
  effect on spontaneous uterine contractions: no effect
[2]; 30% rat plasma
  order of stability: METx, Polymer (1: 5)> METx, Polymer (1: 7)> METx> METx, Polymer (1: 4)
[2]; 30% rat plasma, 4 hour
  degradation over the 4 hour incubation: completely degraded
[2]; 30% v/v rat plasma
  time to complete degradation: ≤ 60 min
[3]; 20 mg kg^−1 intravenous as GCPQ
  osmolality of the urine: increased significantly
[3]; 40 mg kg^−1 intravenous as GCPQ, 4 hour observation period
  urine production: no urine at all
[3]; 10, 20 or 40 mg kg^−1 intravenous as GCPQ, 4 hours
  spontaneously voided urine volume, dose dependence: dose correlated reduction in urine production

## CC[C@H](C)[C@@H]1NC(=O)[C@H](Cc2ccc(O)cc2)NC(=O)[C@@H](N)CSSC[C@@H](C(=O)N2CCC[C@H]2C(=O)N[C@@H](CC(C)C)C(=O)NCC(N)=O)NC(=O)[C@H](CC(N)=O)NC(=O)[C@H](CCC(N)=O)NC1=O [OT, oxytocin, reference compound]
OT receptor
  EC50: 0.081 nM

## desmopressin
V1a receptor
  agonism at the V1a receptor: not an agonist at the V1a receptor
MDCK cell line
  EC50: 0.7 nM
Human V1a receptor
  affinity for the human V1a receptor: does not show any affinity
